Literature values in article PMC4946565 (Bioorganic & medicinal chemistry letters, 2016).

Test system: VMAT2
Settings: selectivity VMAT2 over DAT; ref [4], [9], [10]

CN1[C@@H](CC(=O)c2ccccc2)CCC[C@H]1C[C@H](O)c1ccccc1 [Lobeline, lobeline]
fold higher affinity for VMAT2 compared to DAT: about 100 fold
